Laboratory results as given in patent US20260262643A1, “HERBICIDAL BENZOXAZINES” (FMC CORPORATION, priority 2022, published 2026).

Assays:
[1] = test system: kochia; experiment: Test C preemergence; type: in vivo, Bassia scoparia; settings: for Kochia plant response rating: preemergence; for Plant response rating, Kochia: Preemergence
How it was run: (§1)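 Soil-applied (pre) and foliar (post, 1–2 leaf, 2–10 cm) sprays; surfactant-containing non-phytotoxic solvent vehicle; loam/sand substrate. Readout: visual % control at 10 d, greenhouse, versus untreated.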

[2] = test system: barnyardgrass; experiment: Test C preemergence; type: in vivo, Echinochloa crusgalli; settings: for Barnyardgrass plant response rating: preemergence; for Plant response rating, Barnyardgrass: Preemergence
How it was run: as §1

[3] = test system: ryegrass, Italian; experiment: Test C preemergence; type: in vivo, Lolium multiflorum; settings: for Ryegrass, Italian plant response rating: preemergence; for Plant response rating, Ryegrass, Italian: Preemergence
How it was run: as §1

[4] = test system: pigweed, palmer; experiment: Test C preemergence; type: in vivo, Amaranthus palmeri; settings: for Pigweed, Palmer plant response rating: preemergence; for Plant response rating, Pigweed, Palmer: Preemergence
How it was run: as §1

[5] = test system: kochia; experiment: Test C postemergence; type: in vivo, Bassia scoparia; settings: 10 days
How it was run: as §1

[6] = test system: horseweed; experiment: Test C postemergence; type: in vivo, Erigeron canadensis; settings: 10 days
How it was run: as §1

[7] = test system: barnyardgrass; experiment: Test C postemergence; type: in vivo, Echinochloa crusgalli; settings: 10 days
How it was run: as §1

[8] = test system: corn; experiment: Test C preemergence; type: in vivo, Zea mays; settings: for Corn plant response rating: preemergence; for Plant response rating, Corn: Preemergence
How it was run: as §1

[9] = test system: green foxtail; experiment: Test C preemergence; type: in vivo, Setaria viridis; settings: for Foxtail, Green plant response rating: preemergence; for Plant response rating, Foxtail, Green: Preemergence
How it was run: as §1

[10] = test system: sedge, umbrella; experiment: Test D flooded paddy test; type: in vivo, Cyperus difformis; settings: 250 g ai/ha, applied to paddy water, visual rating after 13 to 14 days, scale 0 to 100 (0 no effect, 100 complete control)
How it was run: (§2)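 Post-flood water application at the 2-leaf stage; 3 cm flood depth kept constant; visual control rating 0–100 after 13–14 days greenhouse growth.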

[11] = test system: ryegrass, Italian; experiment: Test C postemergence; type: in vivo, Lolium multiflorum; settings: 10 days
How it was run: as §1

[12] = test system: pigweed, palmer; experiment: Test C postemergence; type: in vivo, Amaranthus palmeri; settings: 10 days
How it was run: as §1

[13] = test system: wheat; experiment: Test C postemergence; type: in vivo, Triticum aestivum; settings: 10 days
How it was run: as §1

[14] = test system: green foxtail; experiment: Test C postemergence; type: in vivo, Setaria viridis; settings: 10 days
How it was run: as §1

[15] = test system: wheat; experiment: Test C preemergence; type: in vivo, Triticum aestivum; settings: for Wheat plant response rating: preemergence; for Plant response rating, Wheat: Preemergence
How it was run: as §1

[16] = test system: corn; experiment: Test C postemergence; type: in vivo, Zea mays; settings: 10 days
How it was run: as §1

[17] = test system: blackgrass; experiment: Test C preemergence; type: in vivo, Alopecurus myosuroides; settings: for Blackgrass plant response rating: preemergence; for Plant response rating, Blackgrass: Preemergence
How it was run: as §1

[18] = test system: soybean; experiment: Test C preemergence; type: in vivo, Glycine max; settings: for Soybean plant response rating: preemergence; for Plant response rating, Soybean: Preemergence
How it was run: as §1

[19] = test system: oat, wild; experiment: Test C preemergence; type: in vivo, Avena fatua; settings: for Oat, Wild plant response rating: preemergence; for Plant response rating, Oat, Wild: Preemergence
How it was run: as §1

[20] = test system: ducksalad; experiment: Test D flooded paddy test; type: in vivo, Heteranthera limosa; settings: 250 g ai/ha, applied to paddy water, visual rating after 13 to 14 days, scale 0 to 100 (0 no effect, 100 complete control)
How it was run: as §2

[21] = test system: ragweed; experiment: Test C preemergence; type: in vivo, Ambrosia artemisiifolia; settings: for Ragweed plant response rating: preemergence; for Plant response rating, Ragweed: Preemergence
How it was run: as §1

[22] = test system: ragweed; experiment: Test C postemergence; type: in vivo, Ambrosia artemisiifolia; settings: 10 days
How it was run: as §1

[23] = test system: rice; experiment: Test D flooded paddy test; type: in vivo, Oryza sativa; settings: 250 g ai/ha, applied to paddy water, visual rating after 13 to 14 days, scale 0 to 100 (0 no effect, 100 complete control)
How it was run: as §2

[24] = test system: oat, wild; experiment: Test C postemergence; type: in vivo, Avena fatua; settings: 10 days
How it was run: as §1

[25] = test system: soybean; experiment: Test C postemergence; type: in vivo, Glycine max; settings: 10 days
How it was run: as §1

[26] = test system: barnyardgrass; experiment: Test D flooded paddy test; type: in vivo, Echinochloa crus-galli; settings: 250 g ai/ha, applied to paddy water, visual rating after 13 to 14 days, scale 0 to 100 (0 no effect, 100 complete control)
How it was run: as §2

[27] = test system: blackgrass; experiment: Test C postemergence; type: in vivo, Alopecurus myosuroides; settings: 10 days
How it was run: as §1

[28] = 500 g ai/ha, 0 to 100 scale (0 no effect, 100 complete control)
[29] = 125 g ai/ha, 0 to 100 scale, 0 no effect, 100 complete control
[30] = 500 g ai/ha, postemergence, 0 to 100 scale (0 no effect, 100 complete control)
[31] = Postemergence, 125 g ai/ha, 0 to 100 scale (0 no effect, 100 complete control)
[32] = 500 g ai/ha, visual rating after 10 days, 0 to 100 scale (0 no effect, 100 complete control)
[33] = Test C, 125 g ai/ha, 0 to 100 scale (0 no effect, 100 complete control)
[34] = 125 g ai/ha, postemergence, 0 to 100 scale, 0 no effect, 100 complete control
[35] = Postemergence, 500 g ai/ha, visual 0 to 100 scale (0 no effect, 100 complete control)

Cc1ccc(-n2cnc(C3(C#N)CCC3)n2)cc1C(=O)N1C[C@H](C)Oc2c(Cl)cccc21 [Compound 402]
0: Plant response rating, Corn [8, 29] | Plant response rating, Wheat [15, 29] | Plant response rating, Ragweed [21, 29] | Plant response rating, Rice (Flood) [23] | Plant response rating, Oat, Wild [24, 31]
70: Plant response rating, Ryegrass, Italian [3, 29] | Plant response rating, Horseweed [6, 30] | Plant response rating, Foxtail, Green [14, 31]
90: Kochia plant response rating [1, 28] | Plant response rating, Kochia [1, 29] | Plant response rating, Kochia [5, 30] | Plant response rating, Kochia [5, 31] | Plant response rating, Pigweed, Palmer [12, 31] | Plant response rating, Foxtail, Green [14, 30] | Plant response rating, Ragweed [22, 31]
20: Plant response rating, Barnyardgrass [7, 31] | Corn plant response rating [8, 28] | Plant response rating, Wheat [13, 31] | Plant response rating, Soybean [18, 29] | Plant response rating, Oat, Wild [19, 29] | Plant response rating, Oat, Wild [24, 30] | Plant response rating, Blackgrass [27, 31]
30: Plant response rating, Ryegrass, Italian [11, 31] | Wheat plant response rating [15, 28] | Blackgrass plant response rating [17, 28] | Plant response rating, Blackgrass [17, 29]
60: Plant response rating, Barnyardgrass [2, 29] | Plant response rating, Corn [16, 30] | Plant response rating, Blackgrass [27, 30]
100: Barnyardgrass plant response rating [2, 28] | Pigweed, Palmer plant response rating [4, 28] | Plant response rating, Pigweed, Palmer [4, 29] | Foxtail, Green plant response rating [9, 28] | Plant response rating, Foxtail, Green [9, 29] | Plant response rating, Pigweed, Palmer [12, 30]
50: Plant response rating, Horseweed [6, 31] | Plant response rating, Barnyardgrass [7, 30] | Ragweed plant response rating [21, 28]
80: Ryegrass, Italian plant response rating [3, 28]
10: Plant response rating, Corn [16, 31]
25: Plant response rating, Sedge, Umbrella (Flood) [10] | Plant response rating, Barnyardgrass (Flood) [26]
40: Soybean plant response rating [18, 28] | Oat, Wild plant response rating [19, 28] | Plant response rating, Soybean [25, 31]
45: Plant response rating, Ducksalad (Flood) [20]

CCOC[C@H]1CN(C(=O)c2cc(-n3cnc(C(C)(C)C)n3)cc3c2OCO3)c2cccc(Cl)c2O1 [Compound 401]
60: Plant response rating, Horseweed [6, 31] | Ragweed plant response rating [21, 28] | Plant response rating, Ragweed [22, 31]
90: Kochia plant response rating [1, 28] | Ryegrass, Italian plant response rating [3, 28] | Plant response rating, Kochia [5, 31] | Plant response rating, Pigweed, Palmer [12, 30]
0: Plant response rating, Kochia [1, 29] | Plant response rating, Corn [8, 29] | Plant response rating, Sedge, Umbrella (Flood) [10] | Plant response rating, Ryegrass, Italian [11, 31] | Plant response rating, Wheat [15, 29] | Plant response rating, Corn [16, 31] | Plant response rating, Soybean [18, 29] | Plant response rating, Oat, Wild [19, 29] | Plant response rating, Ducksalad (Flood) [20] | Plant response rating, Ragweed [21, 29] | Plant response rating, Rice (Flood) [23] | Plant response rating, Oat, Wild [24, 30] | Plant response rating, Oat, Wild [24, 31] | Plant response rating, Soybean [25, 31] | Plant response rating, Barnyardgrass (Flood) [26]
30: Plant response rating, Barnyardgrass [2, 29] | Blackgrass plant response rating [17, 28] | Plant response rating, Blackgrass [17, 29] | Plant response rating, Blackgrass [27, 30]
20: Plant response rating, Barnyardgrass [7, 30] | Corn plant response rating [8, 28] | Plant response rating, Foxtail, Green [9, 29] | Plant response rating, Foxtail, Green [14, 30] | Wheat plant response rating [15, 28]
40: Plant response rating, Corn [16, 30] | Soybean plant response rating [18, 28] | Oat, Wild plant response rating [19, 28]
10: Plant response rating, Barnyardgrass [7, 31] | Plant response rating, Wheat [13, 31] | Plant response rating, Foxtail, Green [14, 31] | Plant response rating, Blackgrass [27, 31]
100: Pigweed, Palmer plant response rating [4, 28] | Plant response rating, Pigweed, Palmer [4, 29] | Plant response rating, Kochia [5, 30] | Foxtail, Green plant response rating [9, 28] | Plant response rating, Pigweed, Palmer [12, 31]
70: Barnyardgrass plant response rating [2, 28] | Plant response rating, Ryegrass, Italian [3, 29] | Plant response rating, Horseweed [6, 30]

COc1cc(C(=O)N2C[C@H](C)Oc3c(Cl)cccc32)cc(-n2cnc(C)n2)c1 [Compound 215]
55: Plant response rating, Rice (Flood) [23]
20: Wheat plant response rating [15, 33]
50: Oat, Wild plant response rating [19, 33] | Plant response rating, Oat, Wild [24, 35] | Plant response rating, Barnyardgrass (Flood) [26]
0: Plant response rating, Horseweed [6, 34] | Ragweed plant response rating [21, 33]
60: Plant response rating, Barnyardgrass [7, 34] | Plant response rating, Corn [8, 32] | Plant response rating, Ragweed [22, 34]
80: Barnyardgrass plant response rating [2, 33] | Plant response rating, Kochia [5, 34] | Soybean plant response rating [18, 33]
90: Kochia plant response rating [1, 33] | Ryegrass, Italian plant response rating [3, 33] | Plant response rating, Kochia [5, 35] | Plant response rating, Ryegrass, Italian [11, 35] | Plant response rating, Pigweed, Palmer [12, 34] | Plant response rating, Foxtail, Green [14, 34] | Plant response rating, Foxtail, Green [14, 35] | Plant response rating, Wheat [15, 32] | Plant response rating, Corn [16, 35] | Plant response rating, Blackgrass [17, 32] | Plant response rating, Oat, Wild [19, 32] | Plant response rating, Blackgrass [27, 34] | Plant response rating, Blackgrass [27, 35]
70: Plant response rating, Horseweed [6, 35] | Plant response rating, Barnyardgrass [7, 35] | Plant response rating, Ryegrass, Italian [11, 34] | Plant response rating, Wheat [13, 35] | Plant response rating, Corn [16, 34] | Blackgrass plant response rating [17, 33] | Plant response rating, Ragweed [22, 35]
100: Plant response rating, Kochia [1, 32] | Plant response rating, Barnyardgrass [2, 32] | Plant response rating, Ryegrass, Italian [3, 32] | Plant response rating, Pigweed, Palmer [4, 32] | Pigweed, Palmer plant response rating [4, 33] | Plant response rating, Foxtail, Green [9, 32] | Foxtail, Green plant response rating [9, 33] | Plant response rating, Sedge, Umbrella (Flood) [10] | Plant response rating, Pigweed, Palmer [12, 35] | Plant response rating, Soybean [18, 32] | Plant response rating, Ducksalad (Flood) [20] | Plant response rating, Soybean [25, 34] | Plant response rating, Soybean [25, 35]
30: Corn plant response rating [8, 33] | Plant response rating, Wheat [13, 34] | Plant response rating, Ragweed [21, 32] | Plant response rating, Oat, Wild [24, 34]
